For data set [1], the target named is T1, recombinant human KRAS G12C protein (Homo sapiens, UniProt P01116, G12C).
T1 construct: The recombinant human KRAS G12C protein (aa1-169)
The experiment in a line: Covalent binding ability to KRAS G12C protein (LC-MS). Conditions: 3 μM, 5 min. Here is the method:
The following method was used to determine the covalent binding ability of the compounds of the present disclosure to recombinant human KRAS G12C protein under in vitro conditions.
The experimental procedure is briefly described as follows: The recombinant human KRAS G12C protein (aa1-169) was prepared with a reaction buffer (20 mM HEPES, 150 mM NaCl, 1 mM MgCl2, 1 mM DTT) at a concentration of 4 μM for later use. The test compound was prepared with DMSO into a 10 mM stock solution, which was then diluted with the reaction buffer for later use. First, 1.5 μL of the test compound diluted with the reaction buffer was added to each well (a final concentration of the reaction system was […]), then added with 23.5 μL of the reaction buffer, mixed well, then added with 25 μL of 4 μM recombinant human KRAS G12C protein for 5 min of incubation at room temperature, and added with 5 μL of acetic acid to stop the reaction. The samples were transferred to injection vials. The ratios of covalent binding between the test compounds and KRAS G12C protein were detected by Agilent 1290/6530 instrument, and the samples were analyzed in a liquid chromatography column (XBridge Protein BEH C4, 300 Å, 3.5 μm, 2.1 mm×50 mm). In the detection process, mobile phase A was 0.1% formic acid aqueous solution, mobile phase B was acetonitrile, the mobile phase elution program was as follows: mobile phase A was kept at 95% at 0-0.5 min, changed to 30% at 2.5 min for 0.5 min, and changed to 95% at 3.1 min for 1.9 min; and flow rate was 0.5 mL/min. Finally, the data was analyzed by MassHunter Workstation Software Bioconfirm Version B.08.00 to obtain the covalent binding rate between the test compound at a concentration of 3 μM and KRAS G12C protein under 5 min of incubation.

Data set [2] can be described thus: ICR mouse pharmacokinetic research. It counts as in vivo. As to conditions: plasma, po, ICR mice, intragastric administration 5 mg/kg. On the procedure: ICR mice were used as test animals. The drug concentrations in plasma at different time points of the compounds in Comparative Example 1 and Example 17 of the present disclosure intragastrically administered to the mice were determined by LC/MS/MS method, to study the pharmacokinetic characteristics of the compounds of the present disclosure in mice.
Preparation for intragastric administration: An appropriate amount of the compound to be tested was weighed, added with an appropriate amount of DMSO: PEG 200=5%: 95% (v/v), shaken by vortex, and prepared into a solution with a final concentration of 0.5 mg/mL.
Intragastric administration group: After fasting overnight, the mice were intragastrically administered at a dose of 5 mg/kg and a volume of 10 mL/kg, and fed 4 h after the administration.
Intragastric administration group: About 100 μL of blood was collected through the orbital vein before administration and at 0.25 h, 0.5 h, 1 h, 2 h, 4 h, 8 h, 12 h and 24 h after administration.
The whole blood sample was put in an EDTA-K2 anticoagulant tube. The plasma was separated by centrifugation at 1500 g for 10 min. The collected upper layer plasma was stored at −40 to −20° C. before analysis.
The content of the compound to be tested in mouse plasma was determined by LC-MS/MS after the compound was intragastrically administered.

Data set [3] concerns NCI-H358 cells. As to the kind of experiment: Inhibition of NCI-H358 cell proliferation (CellTiter-Glo). It is filed as cell-based, human. As to conditions: Homo sapiens, NCI-H358, 120 h, 120 h of culture; read-out: IC50 inhibiting NCI-H358 cell proliferation. On the procedure: The following method was used to determine the effect of the compounds of the present disclosure on the proliferation of NCI-H358 cells. NCI-H358 cells (containing KRAS G12C mutation) were purchased from the Cell Resource Center, Shanghai Institutes for Biology Sciences, Chinese Academy of Sciences, and cultured in RPMI 1640 medium containing 10% fetal bovine serum, 100 U penicillin, 100 μg/mL streptomycin and 1 mM sodium pyruvate. Cell viability was determined by CellTiter-Glo® Luminescent Cell Viability Assay Kit (Promega, Cat. No. G7573).
The experiment was conducted according to the steps in the kit instruction, which is briefly described as follows: The test compound was first prepared with DMSO into a 10 mM stock solution, which was then diluted with medium into a test sample with a final concentration of the compound ranging from 1000 nM to 0.015 nM Cells in the logarithmic growth phase were inoculated into a 96-well cell culture plate at a density of 800 cells per well, cultured overnight at 37° C. in a 5% CO2 incubator, and then added with the test compound for 120 h of culture. After the culture was completed, 50 μL of CellTiter-Glo detection solution was added to each well, shaken for 5 min and left to stand for 10 min. Subsequently, the luminescence value of the sample in each well was read by a microplate in a luminescence mode. The percentage of inhibition rate of the compounds at each concentration was calculated by comparing with the value of the control group (0.3% DMSO). Then a nonlinear regression analysis on the log concentration-inhibition rate of the compounds was performed by the software GraphPad Prism 5 to obtain the IC50 value of the compound inhibiting NCI-H358 cell proliferation. Table 2 IC50 data of compounds of the present disclosure inhibiting NCI-H358 cell proliferation Compound number IC50(nM)

T1 sequence (P01116 1-169 isoform P01116-2 G12C): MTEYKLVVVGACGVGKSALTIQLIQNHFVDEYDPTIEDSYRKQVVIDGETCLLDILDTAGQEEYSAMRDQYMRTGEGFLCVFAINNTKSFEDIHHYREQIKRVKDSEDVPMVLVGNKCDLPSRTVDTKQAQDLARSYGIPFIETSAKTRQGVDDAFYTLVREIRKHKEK

In the case of `C=CC(=O)N1C[C@@H]2C(=O)N(C)c3c(c4cc(Cl)c(-c5c(O)cccc5F)nc4n(-c4c(SC)ccnc4C(C)C)c3=O)N2C[C@H]1C` (single isomer, unassigned) [Compound 17], the “Covalent binding rate (%)” value in data set [1] stood at 63.4%. Moreover, in data set [2] (read-out: Area under curve AUC0-∞), the AUC(0-inf) came to 6380 ng·h/mL. In addition, in data set [2] (read-out: Blood concentration Cmax), the Cmax is 1400 ng/mL. Further, the half-life – broadly, the time in which the quantity being followed falls by half – in data set [2] (read-out: Half-life T½ (converted)) is 2.36 h. Moreover, the IC50 in data set [3] came out at 21.1 nM.

These data come from US20230295163A1, “TETRACYCLIC DERIVATIVE, METHOD FOR PREPARING SAME AND USE THEREOF IN MEDICINE” (ZHEJIANG HISUN PHARMACEUTICAL CO., LTD., priority 2020, published 2023).
